Among the data in paper PMC2172902 (The Journal of Cell Biology, 2003) are proportion of metaphases and proportion of prometaphases values, retold here.

This assay has as its system DLD-1 cells. Briefly: chromosome alignment in cultures treated with proteosome inhibitor. Type of assay: cell-based, human. The note with it: control cultures, 20 μM.

Peptide text beside a SMILES is read from it. * marks the point of attachment. Cbz = O=C(OCc1ccccc1)*

With `CC(C)C[C@@H](C=O)NC(=O)[C@H](CC(C)C)NC(=O)[C@H](CC(C)C)NC(=O)OCc1ccccc1` [MG132] (Cbz-Leu-Leu-Leu-aldehyde), the proportion of metaphases was roughly 66% and the proportion of prometaphases was roughly 25%.
